Data set [1] can be described thus: Delivery vehicle size and polydispersity by dynamic light scattering. It counts as physicochemical. The following applies: DLS in PBS; peptoid:DSPC:Cholesterol:DMG-PEG2000 weight ratio 20:1.79:7.16:1.84, mRNA. How it is done: Delivery vehicles were formulated by rapid microfluidic mixing using a high throughput microfluidic system. Briefly, ethanol solutions containing peptoid, DSPC, Cholesterol, DMG-PEG2000 at weight ratio of 20:1.79:7.16:1.84, were mixed with 10 mM sodium citrate buffer (pH 5.0) containing synthesized mRNA at a ratio of 1:3 by volume. Peptoid based LNPs were subsequently dialyzed against 1-2 liters of tris-sucrose buffer (TS7, pH 7.4) overnight at 4 °C. Delivery vehicle size and polydispersity (PDI) was measured by dynamic light scattering in PBS.
(§1) Degradable peptoids described herein were formulated as various formulations described in Table 3 according to the procedure described in Example 2. Particle size was characterized as described in Example 2, and […] encapsulation of mRNA was determined as described in Example 3.

In another data set the test system is mRNA. Briefly: mRNA encapsulation (modified Quant-iT RiboGreen assay). It counts as physicochemical. The following applies: RiboGreen, without vs with Triton X-100. How it is done:
The mRNA concentration and the percentage of encapsulated mRNA were determined using fluorescent-based Quant-iT RiboGreen RNA Reagent Kit (Life Technologies, Waltham, MA) as described previously. To determine the mRNA concentration, PNPs was incubated with […] for 10 min to release entrapped mRNA, followed by addition of RiboGreen RNA reagent. The fluorescence intensity of mRNA-RiboGreen reagent complex (excitation at 485 nm and emission at 530 nm) was detected using a microplate reader. The ratio of fluorescence without and with Triton X-100 were used to calculate the percentage of encapsulated mRNA.
as §1

The subject of a further data set is firefly luciferase. Briefly: In vivo firefly luciferase expression after intravenous injection of fLuc mRNA delivery vehicles (IVIS imaging). On the set-up: species or system female Balb/c mice. Conditions: mice, 2.5 ug fLuc mRNA intravenously, 6 hours post-injection. The protocol:
(§2) All animal studies were conducted under accreditation by the California State Department of Public Health and under supervision of IACUC and Veterinarian Supervision. For imaging studies, female Balb/c mice (6-8 weeks old) were obtained and acclimatized for a minimum of 3 days prior to experiments. The animals were maintained on a 12 hour light cycle in a temperature and humidity controlled room. A daily health check was performed as well as food and water check. For dosing, mice were injected with 2.5 ug fLuc mRNA-containing Nutshells intravenously in 100 μL total injection value. At 6 hours post-injection, mice were anesthetized with isoflurane, injected IP with 30 mg/mL D-luciferin at a dose of 10 μL per gram bodyweight intraperitoneally. Imaging was done 10 minutes post D-luciferin injection using an IVIS Spectrum Imaging System (Caliper Life Sciences). Immediately after in vivo imaging, mice were terminally bled by cardiac puncture and euthanized. The organs of interest were harvested, placed in black 24-well plates, and imaged. Living Image software (Perkin Elmer) was used to quantify the total photon flux in regions of interest.
Luciferase expression in these formulations was also determined as described in Example 4.

The next data set concerns hEPO. Briefly: Quantification of hEPO in serum after IV injection of mRNA (Human EPO ELISA). In kind it is in vivo. The following applies: Balb/c mice, 2.5 μg mRNA IV, serum after 6 hours. How it is done: Balb/c mice were treated with 2.5 μg of mRNA coding for human erythropoiten via IV injection according to a similar method as in Example 4. hEPO protein in the serum was quantified after 6 hours using the Human EPO ELISA Kit from Invitrogen (catalog #BMS2035-2). Wash buffer (PBS with 1% tween 20) and assay buffer (PBS with 1% tween 20, 10% BSA) were prepared from a 20× concentrate with milli-Q water. Serum samples were diluted with PBS according to expected EPO concentration, with a 50× dilution for low expression samples and up to a 30,000× dilution for samples expected to have high expression. Microwell strips were washed in a plate washer with wash buffer and tapped on an absorbent pad to remove excess buffer. 100 μL of sample diluent were added to each well that will be used for the standard curve. 50 μL of sample diluent was added to each sample well.
The standard curve was prepared by reconstituting the human erythropoietin standard by adding the volume of water listed on the vial label. Standard was swirled gently and allowed to reconstitute for 10 minutes prior to use, then 100 μL is added to standard wells and mixed well. 100 μL from standard wells were then transferred to sample wells and mixed well. This was repeated 5 times to produce 2 columns of standard dilutions from 100 to 1.6 mIU/mL. 100 μL was discarded from the last microwells. The final 2 wells contained 100 μL of sample diluent and served as a blank. An external standard was also included to facilitate a mIU/mL conversion to ng/mL. The same serial dilution method was repeated starting with the external standard at 6.25 ng/mL. Once the standards were added, 50 μL of each sample was added in duplicate to the sample wells. Next, the biotin-conjugate was prepared by diluting 1:100 in assay buffer. 50 μL of biotin-conjugate was added to all wells and the plate was covered with a plate seal and shaken at room temperature for 1 hour. During the last few minutes of shaking, streptavidin-HRP was prepared by diluting 1:100 in assay buffer. The plate was washed on a plate washer and tapped on an absorbent pad to remove remaining wash buffer.
100 μL of the diluted streptavidin-HRP was added to each well and the plate was sealed and shaken for 15 minutes at room temperature. After 15 minutes, the plate seal was removed and the plate was washed on a plate washer and remaining wash buffer tapped out on an absorbent pad. 100 μL of TMB substrate was added to all wells and the plate was incubated for 10 minutes at room temperature out of direct light. Color development was checked every few minutes and the assay was stopped when the highest standard was dark blue. The reaction was stopped by pipetting 100 μL of stop solution into each well. Immediately after stop solution was added, the plate was gently tapped to ensure the solution was mixed. Absorbance was then read at 450 nm for each well. A standard curve was plotted for both the kit-provided standards (mIU/mL) and the external standard (ng/mL) and fit using Prism. Sample absorbances that fell within the standard curve were interpolated and adjusted for dilution (including a 2× assay dilution). Samples that were not within the standard curve were repeated at an adjusted dilution.
Background: An ELISA detects its analyte on a solid surface through an enzyme-linked reagent.

In another data set the test system is luciferase. Briefly: Luciferase expression after local (intramuscular or subcutaneous) administration of mRNA. In kind it is in vivo. Conditions: mRNA 0.01 mpk, 6 hours; for IM Flux: intramuscular; for SC Flux: subcutaneous. How it is done: as §2
Aminolipidated peptoids were also effective for local administration of mRNA through subcutaneous (S.C.) or intramuscular (I.M.) routes of administration. For these examples, mRNA was administered at a dose of 0.1 mpk for intratomoral, or 0.01 mpk for subcutaneous and intramuscular administration, and the resulting bioluminescence quantified after 6 hours according to a similar procedure as described in Example 4.

Non-standard residues stand in square brackets, D forms with d. Residues, ends and D or L forms follow the SMILES beside them. *: point of attachment. Gly(N-(3-decanoyloxypropyl)) = CCCCCCCCCC(=O)OCCCNCC(=O)O; N(3-lauroyloxypropyl)Gly = CCCCCCCCCCCC(=O)OCCCNCC(=O)O; Gly(N-(CH2)3O-octanoyl) = CCCCCCCC(=O)OCCCNCC(=O)O; N(3-imidazol-1-ylpropyl)Gly = O=C(O)CNCCCn1ccnc1; Gly(N-3-morpholinopropyl) = O=C(O)CNCCCN1CCOCC1; N(2-ethylhexyl)Gly = CCCCC(CC)CNCC(=O)O; NDecylGly = CCCCCCCCCCNCC(=O)O; NHexGly = CCCCCCNCC(=O)O; For = O=C*

The results in this text go back to US20260373248A1, “DEGRADABLE PEPTOIDS” (Medici Therapeutics, Inc., priority 2023, published 2026).

In the case of `CCCCCCCCCCCC(=O)OCCCN(CC(=O)N(CCCOC(=O)CCCCCCCCCCC)CC(=O)N(CCCCCC)CC(=O)N(CCCOC(=O)CCCCCCCCCCC)CC(=O)N(CCCOC(=O)CCCCCCCCCCC)CC(=O)N(CCCCCC)CC(N)=O)C(=O)CN(C=O)CCCN1CCOCC1` [Compound 71] (For-[Gly(N-3-morpholinopropyl)][N(3-lauroyloxypropyl)Gly][N(3-lauroyloxypropyl)Gly][NHexGly][N(3-lauroyloxypropyl)Gly][N(3-lauroyloxypropyl)Gly][NHexGly]-NH2), in data set [1], the PDI was 0.238 and the “Particle Size” value came to 86.9 nm. Moreover, the “mean percent encapsulation of RNA” value in the data set on mRNA worked out at 13.1%. In the data set with firefly luciferase, the “Total Flux” value came out at 4.43E+08 p/s. Also, the hEPO with hEPO is 38.1 ng/mL. Besides, in the data set with luciferase, the “IM Flux” value was found to be 3.61E+08 p/s and the “SC Flux” value is recorded as 9.18E+07 p/s.

Turning to `CCCCCCCC(=O)OCCCN(C=O)CC(=O)N(CCCOC(=O)CCCCCCC)CC(=O)N(CCc1ccccc1)CC(=O)N(CC(=O)N(CCCN1CCOCC1)CC(=O)N(CCCOC(=O)CCCCCCC)CC(=O)N(CCc1ccccc1)CC(=O)N(CCCOC(=O)CCCCCCC)CC(=O)N(CC(N)=O)CC(CC)CCCC)CC(CC)CCCC` (centres unmarked) [Compound 125], in data set [1], the PDI is reported as 0.111 and the “Particle Size” value is 86.2 nm. Moreover, in the data set on mRNA, the “mean percent encapsulation of RNA” value is 82.1%. The “Total Flux” value with firefly luciferase is listed as 2.12E+09 p/s. Also, in the data set on hEPO, the hEPO was 13.4 ng/mL. Moreover, in the data set on luciferase, the “IM Flux” value came out at 9.45E+07 p/s and the “SC Flux” value is 8.55E+07 p/s.

In the case of `CCCCCCCCCCCC(=O)OCCCN(CC(=O)N(CCCOC(=O)CCCCCCCCCCC)CC(=O)N(CC(=O)N(CCCOC(=O)CCCCCCCCCCC)CC(=O)N(CCCOC(=O)CCCCCCCCCCC)CC(=O)N(CC(N)=O)CC(CC)CCCC)CC(CC)CCCC)C(=O)CNCCCn1ccnc1` (centres unmarked) [Compound 68] (H-[N(3-imidazol-1-ylpropyl)Gly][N(3-lauroyloxypropyl)Gly][N(3-lauroyloxypropyl)Gly][N(2-ethylhexyl)Gly][N(3-lauroyloxypropyl)Gly][N(3-lauroyloxypropyl)Gly][N(2-ethylhexyl)Gly]-NH2), in data set [1], the PDI is 0.178 and the “Particle Size” value came to 87.2 nm. Besides, the “mean percent encapsulation of RNA” value in the data set on mRNA is listed as 79.7%. Further, in the data set with firefly luciferase, the “Total Flux” value was 4.20E+08 p/s. Besides, the hEPO in the data set with hEPO turned out to be 72.6 ng/mL. Moreover, in the data set on luciferase, the “IM Flux” value was 5.10E+06 p/s and the “SC Flux” value is 3.39E+08 p/s.

On to `CCCCCCCCCCN(C=O)CC(=O)N(CCCOC(=O)CCCCCCC)CC(=O)N(CC(=O)N(CCCn1ccnc1)CC(=O)N(CC(=O)N(CCCOC(=O)CCCCCCC)CC(=O)N(CCCCCCCCCC)CC(N)=O)CC(CC)CCCC)CC(CC)CCCC` (centres unmarked) [Compound 114] (For-[NDecylGly][Gly(N-(CH2)3O-octanoyl)][N(2-ethylhexyl)Gly][N(3-imidazol-1-ylpropyl)Gly][N(2-ethylhexyl)Gly][Gly(N-(CH2)3O-octanoyl)][NDecylGly]-NH2), for which, in data set [1], the PDI stood at 0.245 and the “Particle Size” value was determined as 119.7 nm. Further, the “mean percent encapsulation of RNA” value in the data set with mRNA worked out at 40.7%. Besides, the “Total Flux” value with firefly luciferase was found to be 2.06E+08 p/s. This molecule returned a hEPO in the data set on hEPO of 23.7 ng/mL. Further, in the data set on luciferase, the “IM Flux” value was 9.30E+07 p/s and the “SC Flux” value is 1.03E+08 p/s.

For `CCCCCCCC(=O)OCCCN(C=O)CC(=O)N(CCCOC(=O)CCCCCCC)CC(=O)N(CCc1ccccc1)CC(=O)N(CC(=O)N(CCCn1ccnc1)CC(=O)N(CCCOC(=O)CCCCCCC)CC(=O)N(CCc1ccccc1)CC(=O)N(CCCOC(=O)CCCCCCC)CC(=O)N(CC(N)=O)CC(CC)CCCC)CC(CC)CCCC` (centres unmarked) [Compound 123], in data set [1], the PDI worked out at 0.201 and the “Particle Size” value worked out at 118.1 nm. In the data set with mRNA, the “mean percent encapsulation of RNA” value is 56.3%. The same molecule returned a hEPO with hEPO of 172 ng/mL. Further, in the data set on luciferase, the “IM Flux” value came to 6.45E+06 p/s and the “SC Flux” value is reported as 1.01E+07 p/s.

For the molecule `CCCCCCCCCCN(C=O)CC(=O)N(CCCOC(=O)CCCCCCCCC)CC(=O)N(CC(=O)N(CCCN1CCOCC1)CC(=O)N(CC(=O)N(CCCOC(=O)CCCCCCCCC)CC(=O)N(CCCCCCCCCC)CC(N)=O)CC(CC)CCCC)CC(CC)CCCC` (centres unmarked) [Compound 117] (For-[NDecylGly][Gly(N-(3-decanoyloxypropyl))][N(2-ethylhexyl)Gly][Gly(N-3-morpholinopropyl)][N(2-ethylhexyl)Gly][Gly(N-(3-decanoyloxypropyl))][NDecylGly]-NH2), in data set [1], the PDI came to 0.156 and the “Particle Size” value stood at 78.4 nm. Besides, the “mean percent encapsulation of RNA” value in the data set on mRNA is on record as 49.8%. The “Total Flux” value with firefly luciferase amounted to 5.14E+09 p/s. In addition, the hEPO in the data set with hEPO was determined as 685 ng/mL. In the data set with luciferase, the “IM Flux” value was found to be 2.10E+08 p/s and the “SC Flux” value was found to be 6.43E+08 p/s.
